Earlier results as cited in publication PMC9227077, “Prediction Models for Brain Distribution of Drugs Based on Biomimetic Chromatographic Data” (Molecules, 2022).
Like-named read-outs stand apart in the source and are kept apart here.

How the values were obtained:
[1] = experimental, cited from earlier work; for logP: octanol-water partition coefficient
[2] = cited from earlier work
human serum albumin = tested on: human serum albumin; parameters: method as in ref 45 (a number printed in a supplementary file, which may have a reference list of its own: not looked up in the article's list); conditions: cited from earlier work
[3] = brain slice method; cited from earlier work
[4] = most values in rats, average if more than one value; cited from earlier work
[5] = parameters: method as in ref 23, 24, 27, 29, 45 (a number printed in a supplementary file, which may have a reference list of its own: not looked up in the article's list); conditions: 100% aqueous mobile phase, previously obtained in authors' laboratory, cited from earlier work
α1 acid glycoprotein = tested on: α1 acid glycoprotein; parameters: method as in ref 23, 24, 27, 29, 45 (a number printed in a supplementary file, which may have a reference list of its own: not looked up in the article's list); conditions: pH=7.4, 100% aqueous mobile phase; previously obtained in authors' laboratory; cited from earlier work
[6] = rat brain tissue; cited from earlier work
[7] = literature Kp,brain converted to logBB
[8] = total brain/total plasma, preferably rat studies
[9] = pH=7.4, isocratic, 10% acetonitrile, available for 37 compounds, remaining calculated by equation

CN(C)CCC=C1c2ccccc2CCc2ccccc21 [Amitriptyline]
logD ([1]; pH=5.0, octanol-water): 1.13
logD ([1]; pH=7.4, octanol-water): 2.50
logBB exper. [2, 7]: 0.98
Kp,brain [2, 8]: 9.55
logk10,HSA (human serum albumin; [9]): 0.89
Vu,brain [3]: 310.00 mL/g brain
fu,brain [4]: 0.010
logkw IAM ([5]; pH=5.0, PBS): 2.06
logkw IAM ([5]; pH=7.4, PBS): 2.99
logkwAGP (α1 acid glycoprotein): 2.40

Cc1cc(=O)n(-c2ccccc2)n1C [Antipyrine]
Kp,brain [2, 8]: 0.80
logk10,HSA (human serum albumin): -1.04
Kp,uu,brain [6]: 0.71
fu,brain [4]: 0.862
logkw IAM ([5]; pH=7.4, PBS): 0.45
logkwAGP (α1 acid glycoprotein): 0.88

Cn1c(=O)c2c(ncn2C)n(C)c1=O [Caffeine]
Kp,uu,brain [6]: 0.77
logkw IAM ([5]; pH=7.4, PBS): 0.26

CCOc1nc2cccc(C(=O)O)c2n1Cc1ccc(-c2ccccc2-c2nnn[nH]2)cc1 [Candesartan]
logP [1]: 3.36
logD ([1]; pH=5.0, octanol-water): 1.00
logD ([1]; pH=7.4, octanol-water): -1.35
logBB exper. [2, 7]: -1.4
Kp,brain [2, 8]: 0.04
logk10,HSA (human serum albumin; [9]): 0.42
logkw IAM ([5]; pH=5.0, PBS): 1.57
logkw IAM ([5]; pH=7.4, PBS): 1.00
logkwAGP (α1 acid glycoprotein): 0.09

CN(C)CCCN1c2ccccc2Sc2ccc(Cl)cc21 [Chlorpromazine]
logk10,HSA (human serum albumin; [9]): 1.34
fu,brain [4]: 0.003
logkwAGP (α1 acid glycoprotein): 2.30

CN(C)CCCN1c2ccccc2CCc2ccc(Cl)cc21 [Clomipramine]
logP [1]: 5.46
logD ([1]; pH=5.0, octanol-water): 2.19
logD ([1]; pH=7.4, octanol-water): 3.30
logBB exper. [2, 7]: 1.34
Kp,brain [2, 8]: 21.88
fu,brain [4]: 0.004
logkw IAM ([5]; pH=5.0, PBS): 2.49
logkw IAM ([5]; pH=7.4, PBS): 3.29
logkwAGP (α1 acid glycoprotein): 2.70

COC(=O)[C@H]1[C@@H](OC(=O)c2ccccc2)C[C@@H]2CC[C@H]1N2C [Cocaine]
logP [1]: 3.01
logD ([1]; pH=5.0, octanol-water): -0.96
logD ([1]; pH=7.4, octanol-water): 1.07
Kp,brain ([2]; rat, in vivo): 3.98
logBB exper. ([2]; rat, in vivo): 0.6
logk10,HSA (human serum albumin; [9]): 0.33
Kp,uu,brain [6]: 0.37
logkw IAM ([5]; pH=7.4, PBS): 1.90

CN(C)CCC=C1c2ccccc2COc2ccccc21 [Doxepin]
logP [1]: 3.96
logD ([1]; pH=5.0, octanol-water): 0.86
logD ([1]; pH=7.4, octanol-water): 2.22
logk10,HSA (human serum albumin; [9]): 0.56
logkw IAM ([5]; pH=5.0, PBS): 1.98
logkw IAM ([5]; pH=7.4, PBS): 2.50
logkwAGP (α1 acid glycoprotein): 2.30

CN1C(=O)CN=C(c2ccccc2F)c2cc([N+](=O)[O-])ccc21 [Flunitrazepam]
logk10,HSA (human serum albumin): 0.26
logkw IAM ([5]; pH=7.4, PBS): 1.79
logkwAGP (α1 acid glycoprotein): 1.44

CNCCC(Oc1ccc(C(F)(F)F)cc1)c1ccccc1 (stereo not drawn) [Fluoxetine]
logP [1]: 4.26
logBB exper. [2, 7]: 0.72
Kp,brain [2, 8]: 5.25
logkw IAM ([5]; pH=5.0, PBS): 2.46
logkw IAM ([5]; pH=7.4, PBS): 2.98
logkwAGP (α1 acid glycoprotein): 2.10

CC(C)Cc1ccc(C(C)C(=O)O)cc1 (stereo not drawn) [Ibuprofen]
logD ([1]; pH=5.0, octanol-water): 2.15
Kp,uu,brain [6]: 0.56
logkw IAM ([5]; pH=5.0, PBS): 1.55
logkw IAM ([5]; pH=7.4, PBS): 0.87

COc1ccc2c(c1)c(CC(=O)O)c(C)n2C(=O)c1ccc(Cl)cc1 [Indomethacin]
logD ([1]; pH=5.0, octanol-water): 2.95
logBB exper. [2, 7]: -1.26
Kp,brain [2, 8]: 0.05
logk10,HSA (human serum albumin): 1.76
Vu,brain [3]: 14.00 mL/g brain
fu,brain [4]: 0.042
logkw IAM ([5]; pH=5.0, PBS): 2.93
logkw IAM ([5]; pH=7.4, PBS): 2.41
logkwAGP (α1 acid glycoprotein): 1.59

O=C1Nc2ccc(Cl)cc2C(c2ccccc2Cl)=NC1O (stereo not drawn) [Lorazepam]
logBB exper. [2, 7]: 0.47
Kp,brain [2, 8]: 2.95
logk10,HSA (human serum albumin; [9]): 0.67
logkw IAM ([5]; pH=5.0, PBS): 2.01
logkw IAM ([5]; pH=7.4, PBS): 2.03
logkwAGP (α1 acid glycoprotein): 1.33

CNCCC=C1c2ccccc2CCc2ccccc21 [Nortriptyline]
logP [1]: 4.04
logD ([1]; pH=5.0, octanol-water): 1.16
logD ([1]; pH=7.4, octanol-water): 1.70
logk10,HSA (human serum albumin; [9]): 0.82
fu,brain [4]: 0.006
logkw IAM ([5]; pH=5.0, PBS): 2.12
logkw IAM ([5]; pH=7.4, PBS): 2.83
logkwAGP (α1 acid glycoprotein): 2.30

CC1COc2c(N3CCN(C)CC3)c(F)cc3c(=O)c(C(=O)O)cn1c23 (stereo not drawn) [Ofloxacin]
logD ([1]; pH=5.0, octanol-water): -1.31
logk10,HSA (human serum albumin): -0.65
Kp,uu,brain [6]: 0.12
logkw IAM ([5]; pH=5.0, PBS): 1.35
logkw IAM ([5]; pH=7.4, PBS): 1.30

C=CCOc1ccccc1OCC(O)CNC(C)C (stereo not drawn) [Oxprenolol]
logD ([1]; pH=5.0, octanol-water): -0.61
logD ([1]; pH=7.4, octanol-water): 0.32
logBB exper. [2, 7]: 0.025
Kp,brain [2, 8]: 1.06
logk10,HSA (human serum albumin; [9]): -0.25
Vu,brain [3]: 11.80 mL/g brain
fu,brain [4]: 0.280
logkw IAM ([5]; pH=5.0, PBS): 0.87
logkw IAM ([5]; pH=7.4, PBS): 1.47

CCCC(C)C1(CC)C(=O)NC(=O)NC1=O (stereo not drawn) [Pentobarbital]
logP [1]: 2.07
logD ([1]; pH=5.0, octanol-water): 1.88
logD ([1]; pH=7.4, octanol-water): 1.95
Kp,brain ([2]; rat, in vivo): 1.32
logBB exper. ([2]; rat, in vivo): 0.12
logk10,HSA (human serum albumin; [9]): -0.04
logkw IAM ([5]; pH=5.0, PBS): 1.40
logkw IAM ([5]; pH=7.4, PBS): 1.29
logkwAGP (α1 acid glycoprotein): 1.35

OCCN1CCN(CCCN2c3ccccc3Sc3ccc(Cl)cc32)CC1 [Perphenazine]
logP [1]: 4.20
logD ([1]; pH=5.0, octanol-water): 1.61
logD ([1]; pH=7.4, octanol-water): 3.65
logk10,HSA (human serum albumin; [9]): 1.24
fu,brain [4]: 0.004
logkw IAM ([5]; pH=7.4, PBS): 3.67
logkwAGP (α1 acid glycoprotein): 3.19

CCC1(c2ccccc2)C(=O)NC(=O)NC1=O [Phenobarbital]
logD ([1]; pH=5.0, octanol-water): 1.47
logD ([1]; pH=7.4, octanol-water): 1.14
Kp,brain ([2]; rat, in vivo): 0.72
logBB exper. ([2]; rat, in vivo): -0.14
logk10,HSA (human serum albumin; [9]): -0.22
logkw IAM ([5]; pH=5.0, PBS): 0.71
logkw IAM ([5]; pH=7.4, PBS): 0.28
logkwAGP (α1 acid glycoprotein): 1.10

O=C1NC(=O)C(c2ccccc2)(c2ccccc2)N1 [Phenytoin]
logP [1]: 2.24
logD ([1]; pH=5.0, octanol-water): 1.95
logD ([1]; pH=7.4, octanol-water): 2.17
logBB exper. [2, 7]: -0.04
Kp,brain [2, 8]: 0.91
logk10,HSA (human serum albumin; [9]): 0.44
Kp,uu,brain [6]: 0.45
fu,brain [4]: 0.121
logkw IAM ([5]; pH=5.0, PBS): 1.94
logkw IAM ([5]; pH=7.4, PBS): 1.75
logkwAGP (α1 acid glycoprotein): 1.60

CC(CN1c2ccccc2Sc2ccccc21)N(C)C (stereo not drawn) [Promethazine]
logD ([1]; pH=5.0, octanol-water): 1.59
logD ([1]; pH=7.4, octanol-water): 2.79
logBB exper. [2, 7]: 0.824
Kp,brain [2, 8]: 6.67
logk10,HSA (human serum albumin; [9]): 1.05
logkw IAM ([5]; pH=5.0, PBS): 2.18
logkw IAM ([5]; pH=7.4, PBS): 2.78
logkwAGP (α1 acid glycoprotein): 2.50

CC(C)NCC(O)COc1cccc2ccccc12 (stereo not drawn) [Propranolol]
logBB exper. [2, 7]: 0.64
Kp,brain [2, 8]: 4.37
logk10,HSA (human serum albumin; [9]): 0.48
Vu,brain [3]: 112.00 mL/g brain
fu,brain [4]: 0.025
logkw IAM ([5]; pH=5.0, PBS): 1.63
logkw IAM ([5]; pH=7.4, PBS): 2.33
logkwAGP (α1 acid glycoprotein): 2.20

C=C[C@H]1C[N@@]2CC[C@H]1C[C@@H]2[C@@H](O)c1ccnc2ccc(OC)cc12 [Quinidine]
logk10,HSA (human serum albumin): 0.29
Kp,uu,brain [6]: 0.03
logkw IAM ([5]; pH=7.4, PBS): 2.34
logkwAGP (α1 acid glycoprotein): 1.71

Cc1nc2n(c(=O)c1CCN1CCC(c3noc4cc(F)ccc34)CC1)CCCC2 [Risperidone]
logk10,HSA (human serum albumin; [9]): 0.13
Kp,uu,brain [6]: 0.08
logkw IAM ([5]; pH=7.4, PBS): 2.49

CSc1ccc2c(c1)N(CCC1CCCCN1C)c1ccccc1S2 (stereo not drawn) [Thioridazine]
logP [1]: 5.90
logD ([1]; pH=5.0, octanol-water): 3.06
logD ([1]; pH=7.4, octanol-water): 3.34
logBB exper. [2, 7]: 0.24
Kp,brain [2, 8]: 1.74
logk10,HSA (human serum albumin; [9]): 1.59
Vu,brain [3]: 3333.00 mL/g brain
fu,brain [4]: 0.001

O=c1n(CCCN2CCN(c3cccc(Cl)c3)CC2)nc2ccccn12 [Trazodone]
logD ([1]; pH=5.0, octanol-water): 2.89
logD ([1]; pH=7.4, octanol-water): 3.70
fu,brain [4]: 0.071
logkwAGP (α1 acid glycoprotein): 2.36
